Data on one molecule can be found in PMC9407119, “Improving the Specific Activity and Thermostability of Psychrophilic Xylosidase AX543 by Comparative Mutagenesis” (Foods, 2022).

The Km is the substrate concentration at which the rate is half of its maximum.

Holding throughout (test): pNP release at […] nm, Lineweaver-Burk
Common to all, as to settings: McIlvaine buffer, pH 6.0, 20 °C, 5 min, pNPX 0.1 to 2 mM

For assay [1], the system named is T1, R10.
T1 construct: gene AX543; Xyl43A with segment A1 (M1-K67) of AX543 at the N-terminus; pET-28a(+), E. coli BL21(DE3), purified
The class given is biochemical, Humicola insolens; Acremonium sp. WCQ6A.

Assay [2] deals with T2, R3.
T2 construct: gene AX543; pET-28a(+), E. coli BL21(DE3), purified
The class given is biochemical, Acremonium sp. WCQ6A; Humicola insolens.

Assay [3] concerns T3, R2.
T3 construct: gene AX543; pET-28a(+), E. coli BL21(DE3), purified
The assay is classed as biochemical, Acremonium sp. WCQ6A; Humicola insolens.

The subject of assay [4] is T4, R4.
T4 construct: gene AX543; pET-28a(+), E. coli BL21(DE3), purified
The class given is biochemical, Acremonium sp. WCQ6A; Humicola insolens.

For assay [5], the system named is T5, R5.
T5 construct: gene AX543; pET-28a(+), E. coli BL21(DE3), purified
The class given is biochemical, Acremonium sp. WCQ6A; Humicola insolens.

The subject of assay [6] is T6, R6.
T6 construct: gene AX543; pET-28a(+), E. coli BL21(DE3), purified
The class given is biochemical, Humicola insolens; Acremonium sp. WCQ6A.

The subject of assay [7] is T7, R8.
T7 construct: gene Xyl43A; Xyl43A with segment A3 (D161-K231) of AX543; pET-28a(+), E. coli BL21(DE3), purified
The assay is classed as biochemical, Humicola insolens; Acremonium sp. WCQ6A.

Assay [8] has as its system T8, R9.
T8 construct: gene Xyl43A; Xyl43A with segment A2 (T68-G160) of AX543; pET-28a(+), E. coli BL21(DE3), purified
The assay is classed as biochemical, Humicola insolens; Acremonium sp. WCQ6A.

The test system of assay [9] is T9, R1.
T9 construct: gene AX543; pET-28a(+), E. coli BL21(DE3), purified
The class given is biochemical, Acremonium sp. WCQ6A; Humicola insolens.

Assay [10] has as its system T10, R7.
T10 construct: gene Xyl43A; Xyl43A with segment A4 (H232-D324) of AX543 at the C-terminus; pET-28a(+), E. coli BL21(DE3), purified
The class given is biochemical, Humicola insolens; Acremonium sp. WCQ6A.

On to `O=[N+]([O-])c1ccc(O[C@@H]2OC[C@@H](O)[C@H](O)[C@H]2O)cc1` [4-nitrophenyl-β-D-xylopyranoside], for which the Km stood at 1870 ± 44 µM in [1]; 1000 ± 25 µM in [2]; 1170 ± 33 µM in [3]; 1840 ± 106 µM in assay [4]; 1210 ± 56 µM in assay [5]; 1190 ± 34 µM in assay [6]. Besides, the Km in assay [7] stood at 1300 ± 192 µM; in [8], 1320 ± 59 µM; in assay [9], 1250 ± 48 µM; in assay [10], 1630 ± 60 µM.
